Assay results: publication PMC9574860, “Chemical Toolkit for PARK7: Potent, Selective, and High-Throughput” (Journal of Medicinal Chemistry, 2022)
Read-outs that look alike come from different tables or passages of the source.

Tests used:
Type in all cases: biochemical
[1] = target: T1, UCHL1 (Homo sapiens, UniProt P09936); test: UCHL1 activity assay (Ub-Rho-Morpholine or Ub-AMC substrate); conditions: UCHL1 1 nM, 1 h preincubation
T1 sequence (P09936 1-223): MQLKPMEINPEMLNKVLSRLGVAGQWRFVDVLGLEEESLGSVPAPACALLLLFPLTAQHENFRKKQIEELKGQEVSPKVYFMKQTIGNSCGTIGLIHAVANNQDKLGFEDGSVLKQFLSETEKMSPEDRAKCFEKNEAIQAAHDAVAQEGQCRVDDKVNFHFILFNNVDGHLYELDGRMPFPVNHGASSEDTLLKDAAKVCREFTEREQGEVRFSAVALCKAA

[2] = target: T2, PARK7 (Homo sapiens, UniProt Q99497); test: Gel-based competition assay with probe 8RK59, PARK7 band; parameters: GST (N, cleaved yes); made in house; host or cells: E. coli BL21(DE3) Rosetta2
T2 sequence (Q99497 1-189): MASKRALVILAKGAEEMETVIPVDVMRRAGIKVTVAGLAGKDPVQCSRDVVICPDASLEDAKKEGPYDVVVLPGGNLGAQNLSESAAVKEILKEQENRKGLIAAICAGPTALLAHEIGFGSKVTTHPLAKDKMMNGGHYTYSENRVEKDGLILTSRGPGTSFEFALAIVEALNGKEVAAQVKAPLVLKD
Procedure: To assess the inhibitory potency and selectivity of these compounds toward PARK7 and UCHL1, we performed a gel-based competition assay (Figure 3A).[36] A mixture of equal amounts of PARK7 and UCHL1 (1 μM) was treated with each of the synthesized compounds (2 μM) for 1 h, followed by incubation with fluorescent probe 8RK59 (2 μM) for 30 min. Samples were resolved by SDS-PAGE, and the gel was scanned for fluorescence. Inhibition of PARK7 or UCHL1 is reflected by the disappearance of their corresponding bands (Figure 3B). […] The inhibition potential of JYQ-88 against PARK7 was assessed in a similar assay where PARK7 was incubated with a serial dilution of JYQ-88 before treatment with probe 8RK59 (Figure 3C). A clear inhibition is visible at 0.5 μM, and full inhibition is achieved between 1 and 2 μM. […] The selectivity of JYQ-88 between UCHL1 and PARK7 was further confirmed in a direct competition assay between equal amounts of PARK7 and UCHL1 (Figure 3F). PARK7 inhibition was observed starting from 0.5 μM JYQ-88, whereas inhibition of UCHL1 was only detected at 20 μM. Since JYQ-88 and 8RK64 are enantiomers, we assumed that the interactions with PARK7 should be similar. To investigate how the chiral center influences the selectivity, we solved the crystal structure of the PARK7−JYQ-88 complex with 1.42 Å resolution (Figure 3G, Table S1, PDB 7PA3). The global positioning of the inhibitor in between the two α-helices was similar to that for 8RK64. […] This way, the thiazolo-pyridine part of JYQ-88 is bound in a similar manner as 8RK64 and the earlier observed interactions are largely the same. The formation of the isothiourea moiety, stabilized by the interaction with Glu18, and the interaction between the thiazole amine and the amide NH2 of the Asn76 side chain are still present. However, the interaction between the azidoacetyl carbonyl with the Leu128 backbone carbonyl can no longer be observed due to the rotation of the azidoacetyl moiety. The Lys132 residue also seems to have rotated (compared to Figure 2C).
The assay was performed in Tris buffer as described above.

[3] = target: T2, PARK7; test: DiFMUAc PARK7 activity assay; parameters: GST (N, cleaved yes); made in house; host or cells: E. coli BL21(DE3) Rosetta2

N#CN1CC[C@@H](C(=O)Nc2nc3c(s2)CN(C(=O)CN=[N+]=[N-])CC3)C1 [JYQ-88, (R)-N-(5-(2-Azidoacetyl)-4,5,6,7-tetrahydrothiazolo[5,4-c]pyridin-2-yl)-1-cyanopyrrolidine-3carboxamide]
IC50 ([1]; Figure 3E, read-out: UCHL1 IC50): 11.1 µM | IC50 ([1]; read-out: UbRhoMP assay UCHL1 IC50): 11.2 µM | Concentration at which clear inhibition of PARK7 is visible ([2]; PARK7 1 μM, serial dilution of inhibitor, then 8RK59, Figure 3C): 0.5 µM | Inhibition of PARK7 (disappearance of 8RK59-labeled band) ([2]; compound 2 μM, 1 h, PARK7 and UCHL1 1 μM each, then 8RK59 2 μM 30 min, Figure 3B): almost complete inhibition | Concentration from which PARK7 inhibition was observed ([2]; direct competition, equal amounts of PARK7 and UCHL1, Figure 3F): 0.5 µM | Inhibitory potency toward PARK7 compared with 8RK64 ([2]; gel-based PARK7 inhibition assays, Figures 3C and S2): slightly more potent | IC50 ([3]; DiFMUAc assay, PARK7 0.1 μM, 1 h preincubation, DiFMUAc 300 μM): 0.13 µM | Fold higher potency toward PARK7 than UCHL1 ([3]; PARK7 IC50 (DiFMUAc) vs UCHL1 IC50): 85 fold
